From ChEMBL document CHEMBL5096199, “Structure-Based Optimization of Small Molecule Human Galactokinase Inhibitors” (J Med Chem, 2021)
In brackets after ≈: the same amount, converted by molar mass. One block for each compound: values may come before it.

What was measured:
[1] = target: T1, Galactokinase (Homo sapiens, UniProt P51570); test: Inhibition of recombinant human GALK1 using galactose as substrate incubated for 1 hrs in the presence of ATP by Kinase-Glo reagent based luminescence assay
[2] = Permeability of the compound at pH 7.4 measured after 30 mins by PAMPA based LC/MS analysis; type: ADME; conditions: for Papp at 0.5 h: PAMPA, pH 7.4, read-out: permeability
[3] = Metabolic stability in human liver microsomes assessed as half life; type: ADME, Microsome
[4] = physchem; conditions: phosphate buffer, pH 7.4
Description: Kinetic solubility of the compound in phosphate buffer at pH 7.4 at 150 uM incubated for 6 hrs by shake-flask method

[5] = Metabolic stability in mouse liver microsome assessed as half life; type: ADME; conditions: microsomes
[6] = Half life in CD-1 mouse at 3 mg/kg, iv measured upto 24 hrs by LC-MS/MS analysis; type: ADME, organism-based; conditions: in vivo
[7] = Dose normalized AUClast in CD-1 mouse at 50 mg/kg, ip measured upto 24 hrs by LC-MS/MS analysis; type: ADME, organism-based; conditions: in vivo
[8] = AUClast in CD-1 mouse at 50 mg/kg, ip measured upto 24 hrs by LC-MS/MS analysis; type: ADME, organism-based; parameters: time < 24 hrs, dose 50 mg/kg, route ip; conditions: in vivo
[9] = AUCinfinity in CD-1 mouse at 3 mg/kg, iv measured upto 24 hrs by LC-MS/MS analysis; type: ADME, organism-based; parameters: time < 24 hrs, dose 3 mg/kg, route iv; conditions: in vivo
[10] = Tmax in CD-1 mouse at 30 mg/kg, po measured upto 24 hrs by LC-MS/MS analysis; type: ADME, organism-based; conditions: in vivo
[11] = AUCinfinity in CD-1 mouse at 50 mg/kg, ip measured upto 24 hrs by LC-MS/MS analysis; type: ADME, organism-based; parameters: time < 24 hrs, dose 50 mg/kg, route ip; conditions: in vivo
[12] = Half life in CD-1 mouse at 50 mg/kg, ip measured upto 24 hrs by LC-MS/MS analysis; type: ADME, organism-based; conditions: in vivo
[13] = Tmax in CD-1 mouse at 50 mg/kg, ip measured upto 24 hrs by LC-MS/MS analysis; type: ADME, organism-based; conditions: in vivo
[14] = Oral bioavailability in CD-1 mouse at 30 mg/kg measured upto 24 hrs by LC-MS/MS analysis; type: ADME, organism-based; conditions: in vivo
[15] = Dose normalized AUClast in CD-1 mouse at 30 mg/kg, po measured upto 24 hrs by LC-MS/MS analysis; type: ADME, organism-based; conditions: in vivo
[16] = Drug concentration in CD-1 mouse plasma at 3 mg/kg, iv measured after 2 hrs by LC-MS/MS analysis; type: ADME, organism-based; conditions: in vivo, BLD = below limit of detection
[17] = Observed volume of distribution at steady state in CD-1 mouse at 3 mg/kg, iv measured upto 24 hrs by LC-MS/MS analysis; type: ADME, organism-based; conditions: in vivo, read-out: Vdss
[18] = AUClast in CD-1 mouse at 3 mg/kg, iv measured upto 24 hrs by LC-MS/MS analysis; type: ADME, organism-based; parameters: time < 24 hrs, dose 3 mg/kg, route iv; conditions: in vivo
[19] = Cmax in CD-1 mouse at 30 mg/kg, po measured upto 24 hrs by LC-MS/MS analysis; type: ADME, organism-based; parameters: time < 24 hrs, dose 30 mg/kg, route po; conditions: in vivo
[20] = Half life in CD-1 mouse at 30 mg/kg, po measured upto 24 hrs by LC-MS/MS analysis; type: ADME, organism-based; conditions: in vivo
[21] = AUCinfinity in CD-1 mouse at 30 mg/kg, po measured upto 24 hrs by LC-MS/MS analysis; type: ADME, organism-based; parameters: time < 24 hrs, dose 30 mg/kg, route po; conditions: in vivo
[22] = C0 in CD-1 mouse at 3 mg/kg, iv measured upto 24 hrs by LC-MS/MS analysis; type: ADME, organism-based; conditions: in vivo
[23] = target: T1, Galactokinase; test: Inhibition of human GALK1 in GALT-deficient human fibroblast assessed as reduction in gal-1P level incubated for 2 to 4 hrs by cellular Gal-1P accumulation assay; type: cell-based; conditions: dose 0.5-3 µM, time 2-4 hrs, DDE = dose-dependent effect
[24] = Plasma protein binding in CD-1 mouse; type: ADME, cell-free
[25] = Drug concentration in CD-1 mouse plasma at 50 mg/kg, ip measured after 7 hrs by LC-MS/MS analysis; type: ADME, organism-based
[26] = target: T1, Galactokinase; test: Inhibition of human GALK1 in GALT-deficient human fibroblast assessed as reduction in gal-1P level at 3 uM incubated for 2 to 4 hrs by cellular Gal-1P accumulation assay relative to control; type: cell-based; conditions: time 2-4 hrs
[27] = Dose normalized AUClast in CD-1 mouse at 3 mg/kg, iv measured upto 24 hrs by LC-MS/MS analysis; type: ADME, organism-based; conditions: in vivo
[28] = Cmax in CD-1 mouse at 50 mg/kg, ip measured upto 24 hrs by LC-MS/MS analysis; type: ADME, organism-based; parameters: dose 50 mg/kg, time < 24 hrs, route ip; conditions: in vivo
[29] = AUClast in CD-1 mouse at 30 mg/kg, po measured upto 24 hrs by LC-MS/MS analysis; type: ADME, organism-based; parameters: dose 30 mg/kg, time < 24 hrs, route po; conditions: in vivo

T1 sequence (P51570 whole entry): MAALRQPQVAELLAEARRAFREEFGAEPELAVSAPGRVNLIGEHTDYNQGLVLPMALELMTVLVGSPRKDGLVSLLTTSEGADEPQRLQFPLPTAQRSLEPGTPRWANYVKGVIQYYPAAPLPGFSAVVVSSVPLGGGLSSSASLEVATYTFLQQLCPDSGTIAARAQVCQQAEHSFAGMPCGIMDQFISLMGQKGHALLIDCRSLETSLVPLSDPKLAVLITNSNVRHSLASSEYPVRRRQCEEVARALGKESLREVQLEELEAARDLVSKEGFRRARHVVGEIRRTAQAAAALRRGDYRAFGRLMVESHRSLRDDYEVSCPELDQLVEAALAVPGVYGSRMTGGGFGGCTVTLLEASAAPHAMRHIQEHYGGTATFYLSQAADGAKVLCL

- IC50 ([1]; read-out: pIC50 (converted)): 234 nM
Compound: CC1=C(C(=O)Nc2cc(C(=O)O)ccn2)C(c2ccccc2Cl)N=C(Nc2nc3cccc(N)c3o2)N1 (centres undefined)

- Papp at 0.5 h [2]: 632 ×10⁻⁶ cm/s
- t1/2 [3]: 120 min
- solubility kinetic at 6 h, 150 µM [4]: 2.4 µg/mL (≈ 4.62 µM)
Compound: CCn1cc(CNC(=O)C2=C(C)NC(Nc3nc4cccc(N)c4o3)=NC2c2ccc(C)cc2Cl)cn1 (racemic)

- Papp at 0.5 h [2]: 773 ×10⁻⁶ cm/s
- t1/2 [3]: 12 min
- IC50 ([1]; read-out: IC50): 68 nM
- solubility kinetic at 6 h, 150 µM [4]: < 1 µg/mL
- t1/2 [5]: 7 min
Compound: CCn1cc(CNC(=O)C2=C(C)NC(Nc3nc4ccc(F)c(N)c4o3)=N[C@H]2c2ccc(C)cc2Cl)cn1

- IC50 ([1]; read-out: pIC50 (converted)): 1050 nM
Compound: CC1=C(C(=O)NCc2cn(C)cn2)C(c2ccccc2Cl)N=C(Nc2nc3ccccc3o2)N1 (centres undefined)

- Papp at 0.5 h [2]: 407 ×10⁻⁶ cm/s
- t1/2 [3]: 10 min
- IC50 ([1]; read-out: pIC50 (converted)): 1480 nM
- solubility kinetic at 6 h, 150 µM [4]: 2.1 µg/mL (≈ 3.91 µM)
- t1/2 [5]: 12 min
Compound: CCn1cc(CNC(=O)C2=C(C)NC(Nc3nc4ccc(F)c(N)c4o3)=N[C@@H]2c2ccc(C)cc2Cl)cn1

- permeability ([2]; pampa, pH 7.4, 0.5 h): 315 10^-6 cm/s
- t1/2 [3]: 32 min
- IC50 ([1]; read-out: pIC50 (converted)): 209 nM
- solubility kinetic at 6 h, 150 µM [4]: 8.3 µg/mL (≈ 16.4 µM)
- t1/2 [5]: 11 min
Compound: CC1=C(C(=O)NCc2cnn(C)c2)C(c2ccc(C)cc2Cl)N=C(Nc2nc3cccc(N)c3o2)N1 (racemic)

- Papp at 0.5 h [2]: 661 ×10⁻⁶ cm/s
- t1/2 [3]: 37 min
- IC50 ([1]; read-out: pIC50 (converted)): 120 nM
- solubility kinetic at 6 h, 150 µM [4]: 17 µg/mL (≈ 33.7 µM)
- t1/2 [5]: 7 min
Compound: CC1=C(C(=O)NCc2cnn(C)c2)[C@H](c2ccc(C)cc2Cl)N=C(Nc2nc3cccc(N)c3o2)N1

- Papp at 0.5 h [2]: 485 ×10⁻⁶ cm/s
- t1/2 [6]: 24.6 min
- AUClast/dose [7]: 841 ng·h/mL/(mg/kg)
- AUClast [8]: 80.36 µM·h
- AUC [9]: 4.81 µM·h
- Tmax [10]: 40.2 min
- AUC [11]: 80.36 µM·h
- t1/2 [12]: 102 min
- Tmax [13]: 79.98 min
- F [14]: 33%
- AUClast/dose [15]: 278 ng·h/mL/(mg/kg)
- Cp [16]: Bld
- Vd [17]: 0.652 L/kg
- AUClast [18]: 4.66 µM·h
- Cmax [19]: 7.02 µM
- IC50 ([1]; read-out: IC50): 48 nM
- t1/2 [20]: 136 min
- AUC [21]: 16.06 µM·h
- C0 at 24 h [22]: 8.25 µM
- solubility kinetic at 6 h, 150 µM [4]: 1.3 µg/mL (≈ 2.49 µM)
- inhibition [23]: Dde
- PPB [24]: 98.74%
- concentration at 7 h [25]: > 1 µM
- inhibition [26]: 50%
- AUClast/dose [27]: 812 ng·h/mL/(mg/kg)
- t1/2 [5]: 14 min
- Cmax [28]: 21.9 µM
- AUClast [29]: 15.96 µM·h
Compound: CC1=C(C(=O)NCc2cnn(C)c2)C(c2ccc(C)cc2Cl)N=C(Nc2nc3ccc(F)c(N)c3o2)N1 (racemic)

- IC50 ([1]; read-out: pIC50 (converted)): 4680 nM
Compound: CC1=C(C(=O)NCc2cccc(CO)c2)C(c2ccccc2Cl)N=C(Nc2nc3ccccc3o2)N1 (centres undefined)

More lines, now with the values behind:

Compound: CC1=C(C(=O)Nc2cc(C(=O)O)ccn2)C(c2ccccc2Cl)N=C(Nc2nc3cccc(F)c3o2)N1 (centres undefined)
- IC50 ([1]; read-out: pIC50 (converted)): 1780 nM

Compound: CC1=C(C(=O)Nc2cc(C(=O)O)ccn2)C(c2ccccc2Cl)N=C(Nc2nc3cc(Cl)ccc3o2)N1 (centres undefined)
- IC50 ([1]; read-out: pIC50 (converted)): 2630 nM

Compound: CC1=C(C(=O)Nc2cccc(F)c2)C(c2ccccc2Cl)N=C(Nc2nc3ccccc3o2)N1 (centres undefined)
- IC50 ([1]; read-out: pIC50 (converted)): 6610 nM

Compound: CC1=C(C(=O)NCc2ccc(C(=O)O)cc2)C(c2ccccc2Cl)N=C(Nc2nc3ccccc3o2)N1 (centres undefined)
- IC50 ([1]; read-out: pIC50 (converted)): 3720 nM

Compound: CC1=C(C(=O)Nc2cccnc2)C(c2ccccc2Cl)N=C(Nc2nc3ccccc3o2)N1 (centres undefined)
- IC50 ([1]; read-out: pIC50 (converted)): 6610 nM

Compound: CC1=C(C(=O)Nc2cccc(C(=O)O)c2)C(c2ccccc2Cl)N=C(Nc2nc3ccccc3o2)N1 (centres undefined)
- IC50 ([1]; read-out: pIC50 (converted)): 2630 nM

Compound: CC1=C(C(=O)NCc2ccc(CO)cc2)C(c2ccccc2Cl)N=C(Nc2nc3ccccc3o2)N1 (centres undefined)
- IC50 ([1]; read-out: pIC50 (converted)): 6610 nM

Compound: CC1=C(C(=O)Nc2cc(C(=O)O)ccn2)C(c2ccccc2Cl)N=C(Nc2nc3cccc(C)c3o2)N1 (centres undefined)
- IC50 ([1]; read-out: pIC50 (converted)): 933 nM

Compound: COc1ccc2oc(NC3=NC(c4ccccc4Cl)C(C(=O)Nc4cc(C(=O)O)ccn4)=C(C)N3)nc2c1 (centres undefined)
- IC50 ([1]; read-out: pIC50 (converted)): 6610 nM

Compound: CC1=C(C(=O)Nc2cc(C(=O)O)ccn2)C(c2ccccc2Cl)N=C(Nc2nc3cc(N)ccc3o2)N1 (centres undefined)
- IC50 ([1]; read-out: pIC50 (converted)): 7410 nM
